The target of this test is T1, human S1P1 receptors (Homo sapiens, UniProt P21453).
T1 construct: host or cells: HEK293
Kind of test: S1P1R antagonist assay (fluorescent membrane potential dye, cAMP readout). The format is cell-based. The following applies: HEK293 cells expressing human S1P1 receptors and CNG channel; 500 nM NECA; S1P1R agonist 10 nM; 90 minutes; read-out: EC50 or IC50 value.

Consider 33 molecules from US8791102B2, “Acetanilide sphingosine-1-phosphate receptor antagonists” (Exelixis, Inc., priority 2008, dated 2014).

Where only a bound is given, the exact number is not on record here.

T1 sequence (P21453 whole entry): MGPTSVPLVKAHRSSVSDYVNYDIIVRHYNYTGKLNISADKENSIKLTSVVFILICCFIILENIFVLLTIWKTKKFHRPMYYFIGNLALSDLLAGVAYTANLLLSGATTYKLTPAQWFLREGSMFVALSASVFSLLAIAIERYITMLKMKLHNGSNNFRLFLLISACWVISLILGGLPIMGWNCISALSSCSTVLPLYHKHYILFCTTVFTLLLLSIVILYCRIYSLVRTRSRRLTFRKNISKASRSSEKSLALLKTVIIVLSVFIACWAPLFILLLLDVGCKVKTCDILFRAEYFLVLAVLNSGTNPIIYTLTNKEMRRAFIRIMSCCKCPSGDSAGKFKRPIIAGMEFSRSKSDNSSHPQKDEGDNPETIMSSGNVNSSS

On to `O=C(COc1ccccc1)NC(COCc1ccccc1)C(=O)Nc1ccc(Oc2ccccc2)cc1` (stereo not drawn) [Compound 289, N-(2-oxo-1-{[(phenylmethyl)oxy]methyl}-2-{[4-(phenyloxy)phenyl]amino}ethyl)phenoxyacetamide], for which the IC50 was more than 1000 nM.

For the molecule `O=C(Cc1coc(-c2ccccc2)n1)N[C@@H](COCc1ccc(F)cc1)C(=O)Nc1ccc(Oc2ccc(F)cc2)cc1` [Compound 44, (S)-3-(4-fluorobenzyloxy)-N-(4-(4-fluorophenoxy)phenyl)-2-(2-(2-phenyloxazol-4-yl)acetamido)propanamide], the IC50 was more than 1000 nM.

As for `Cc1ccc(CC(=O)NC(COCc2ccccc2)C(=O)Nc2ccc(Oc3ccccc3)cc2)cc1` (stereo not drawn) [Compound 372, N-(2-oxo-1-{[(phenylmethyl)oxy]methyl}-2-{[4-(phenyloxy)phenyl]amino}ethyl)-2-p-tolylacetamide], the IC50 was more than 1000 nM.

In the case of `COc1ccc(F)cc1C(=O)NC(COCc1ccccc1)C(=O)Nc1ccc(Oc2ccccc2)cc1` (stereo not drawn) [Compound 308, 5-fluoro-2-(methyloxy)-N-(2-oxo-1-{[(phenylmethyl)oxy]methyl}-2-{[4-(phenyloxy)phenyl]amino}ethyl)benzamide], the IC50 is more than 1000 nM.

Turning to `O=C(CCCCc1ccccc1)N[C@@H](COCc1ccccc1)C(=O)Nc1ccc(Oc2ccc(F)cc2)cc1` [Compound 104, (S)—N-(3-(benzyloxy)-1-(4-(4-fluorophenoxy)phenylamino)-1-oxopropan-2-yl)-5-phenylpentanamide], the IC50 was more than 1000 nM.

With `CCCCOCC(=O)N1C[C@H](Cc2ccccc2)C[C@H]1C(=O)Nc1ccc(Oc2ccc(F)cc2)cc1` [Compound 38, (2S,4R)-4-benzyl-1-(2-butoxyacetyl)-N-(4-(4-fluorophenoxy)phenyl)pyrrolidine-2-carboxamide], the IC50 was not above 300 nM.

As to `O=C(CN1CCNCC1)N[C@@H](COCc1ccccc1)C(=O)Nc1ccc(Oc2ccc(F)cc2)cc1` [Compound 205, (S)-3-(benzyloxy)-N-(4-(4-fluorophenoxy)phenyl)-2-(2-(piperazin-1-yl)acetamido)propanamide], the IC50 was not above 300 nM.

With `O=C(Cc1ccccc1F)N[C@@H](COCc1ccccc1)C(=O)Nc1ccc(Oc2ccccc2)cc1` [Compound 196, (S)-2-(2-(2-fluorophenyl)acetamido)-3-benzyloxy-N-(4-phenoxyphenyl)propanamide], the IC50 fell in the range of 300 to 1000 nM.

Turning to `O=C(Nc1ccc(Oc2ccc(F)cc2)cc1)[C@@H]1C[C@@H](Cc2cccc(Cl)c2)CN1C(=O)Cn1cncn1` [Compound 61, (2S,4R)-1-(2-(1H-1,2,4-triazol-1-yl)acetyl)-4-(3-chlorobenzyl)-N-(4-(4-fluorophenoxy)phenyl)pyrrolidine-2-carboxamide], the IC50 is not above 300 nM.

Take `O=C(CSCc1ccccc1)NC(COCc1ccccc1)C(=O)Nc1ccc(Oc2ccccc2)cc1` (stereo not drawn) [Compound 374, N-(2-oxo-1-{[(phenylmethyl)oxy]methyl}-2-{[4-(phenyloxy)phenyl]amino}ethyl)-2-(benzylthio)acetamide]: the IC50 was more than 1000 nM.

With `Cc1ccccc1C[C@@H]1C[C@@H](C(=O)Nc2ccc(Oc3ccc(F)cc3)cc2)N(C(=O)Cn2cncn2)C1` [Compound 55, (2S,4R)-1-(2-(1H-1,2,4-triazol-1-yl)acetyl)-N-(4-(4-fluorophenoxy)phenyl)-4-(2-methylbenzyl)pyrrolidine-2-carboxamide], the IC50 was not above 300 nM.

As for `CCCC(=O)NC(COCc1ccccc1)C(=O)Nc1ccc(Oc2ccccc2)cc1` (stereo not drawn) [Compound 273, N-(2-oxo-1-{[(phenylmethyl)oxy]methyl}-2-{[4-(phenyloxy)phenyl]amino}ethyl)butanamide], the IC50 is more than 1000 nM.

Take `CCOCC(=O)NC(COCc1ccccc1)C(=O)Nc1ccc(Oc2ccccc2)cc1` (stereo not drawn) [Compound 338, N-(2-oxo-1-{[(phenylmethyl)oxy]methyl}-2-{[4-(phenyloxy)phenyl]amino}ethyl)-2-ethoxyacetamide]: the IC50 was more than 1000 nM.

In the case of `COCCOCC(=O)NC(COCc1ccccc1)C(=O)Nc1ccc(Oc2ccccc2)cc1` (stereo not drawn) [Compound 303, N-(2-oxo-1-{[(phenylmethyl)oxy]methyl}-2-{[4-(phenyloxy)phenyl]amino}ethyl)-2-methoxyethoxyacetamide], the IC50 was in the range of 300 to 1000 nM.

In the case of `O=C(NC(COCc1ccccc1)C(=O)Nc1ccc(Oc2ccccc2)cc1)c1nc2ccccc2nc1O` (stereo not drawn) [Compound 395, 3-hydroxy-N-(2-oxo-1-{[(phenylmethyl)oxy]methyl}-2-{[4-(phenyloxy)phenyl]amino}ethyl)quinoxaline-2-carboxamide], the IC50 is more than 1000 nM.

As for `O=C(Cc1cnc[nH]1)N[C@@H](COCc1ccccc1)C(=O)Nc1ccc(OC2CCCCC2)cc1` [Compound 208, (S)-2-(2-(1H-imidazol-5-yl)acetamido)-3-(benzyloxy)-N-(4-(cyclohexyloxy)phenyl)propanamide], the IC50 fell in the range of 300 to 1000 nM.

As to `O=C(Nc1ccc(Oc2ccc(F)cc2)cc1)[C@@H]1CN(Cc2ccccc2)CCN1C(=O)Cn1cncn1` [Compound 261, (S)-1-(2-(1H-1,2,4-triazol-1-yl)acetyl)-4-benzyl-N-(4-(4-fluorophenoxy)phenyl)piperazine-2-carboxamide], the IC50 was 300 to 1000 nM.

Take `O=C(Nc1ccc(Oc2ccc(F)cc2)cc1)[C@@H]1C[C@@H](Cc2ccccc2)CN1C(=O)CN1CCOCC1` [Compound 116, (2S,4R)-4-benzyl-N-(4-(4-fluorophenoxy)phenyl)-1-(2-morpholinoacetyl)pyrrolidine-2-carboxamide]: the IC50 was not above 300 nM.

Consider `O=C(Nc1ccc(Oc2ccc(F)cc2)cc1)[C@@H]1C[C@@H](Cc2ccc(F)cc2F)CN1C(=O)Cn1cncn1` [Compound 53, (2S,4R)-1-(2-(1H-1,2,4-triazol-1-yl)acetyl)-4-(2,4-difluorobenzyl)-N-(4-(4-fluorophenoxy)phenyl)pyrrolidine-2-carboxamide], for which the IC50 was not above 300 nM.

As for `CCCOc1ccc(C(=O)NC(COCc2ccccc2)C(=O)Nc2ccc(Oc3ccccc3)cc2)cc1` (stereo not drawn) [Compound 345, N-(2-oxo-1-{[(phenylmethyl)oxy]methyl}-2-{[4-(phenyloxy)phenyl]amino}ethyl)-4-(propyloxy)benzamide], the IC50 was more than 1000 nM.

As to `O=C(Nc1ccc(Oc2ccc(F)cc2)cc1)[C@@H]1C[C@@H](NCc2ccccc2)CN1C(=O)Cn1cncn1` [Compound 179, (2S,4R)-1-(2-(1H-1,2,4-triazol-1-yl)acetyl)-4-(benzylamino)-N-(4-(4-fluorophenoxy)phenyl)pyrrolidine-2-carboxamide], the IC50 was not above 300 nM.

With `O=C(Cc1c[nH]cn1)N[C@@H](COCc1ccc(F)cc1)C(=O)Nc1ccc(Oc2ccc(F)cc2)cc1` [Compound 133, (S)-2-(2-(1H-imidazol-5-yl)acetamido)-3-(4-fluorobenzyloxy)-N-(4-(4-fluorophenoxy)phenyl)propanamide], the IC50 was not above 300 nM.

With `O=C(NC(COCc1ccccc1)C(=O)Nc1ccc(Oc2ccccc2)cc1)c1cccnc1Oc1ccccc1` (stereo not drawn) [Compound 290, N-(2-oxo-1-{[(phenylmethyl)oxy]methyl}-2-{[4-(phenyloxy)phenyl]amino}ethyl)-2-(phenyloxy)pyridine-3-carboxamide], the IC50 was more than 1000 nM.

As to `O=C(Nc1ccc(Oc2ccc(F)cc2)cc1)[C@@H]1C[C@@H](Cc2ccccc2)CN1C(=O)CC(F)(F)F` [Compound 34, (2S,4R)-4-benzyl-N-(4-(4-fluorophenoxy)phenyl)-1-(3,3,3-trifluoropropanoyl)pyrrolidine-2-carboxamide], the IC50 was not above 300 nM.

As for `CC(O)CC(=O)N1C[C@H](Cc2ccccc2)C[C@H]1C(=O)Nc1ccc(Oc2ccc(F)cc2)cc1` (stereo partly drawn) [Compound 118, (2S,4R)-4-benzyl-N-(4-(4-fluorophenoxy)phenyl)-1-(3-hydroxybutanoyl)pyrrolidine-2-carboxamide], the IC50 is not above 300 nM.

`CSCC(=O)NC(COCc1ccccc1)C(=O)Nc1ccc(Oc2ccccc2)cc1` (stereo not drawn) [Compound 307, N-(2-oxo-1-{[(phenylmethyl)oxy]methyl}-2-{[4-(phenyloxy)phenyl]amino}ethyl)-2-(methylthio)acetamide]: the IC50 was not above 300 nM.

Turning to `Cc1cc(CC(=O)N2C[C@H](Cc3ccccc3)C[C@H]2C(=O)Nc2ccc(Oc3ccc(F)cc3)cc2)on1` [Compound 32, (2S,4R)-4-benzyl-N-(4-(4-fluorophenoxy)phenyl)-1-(2-(3-methylisoxazol-5-yl)acetyl)pyrrolidine-2-carboxamide], the IC50 is not above 300 nM.

As for `COc1cccc(CC(=O)NC(COCc2ccccc2)C(=O)Nc2ccc(Oc3ccccc3)cc2)c1` (stereo not drawn) [Compound 285, N-(2-oxo-1-{[(phenylmethyl)oxy]methyl}-2-{[4-(phenyloxy)phenyl]amino}ethyl)-3-methoxyphenylacetamide], the IC50 is more than 1000 nM.

Consider `O=C(Cc1ccc2c(c1)OCO2)NC(COCc1ccccc1)C(=O)Nc1ccc(Oc2ccccc2)cc1` (stereo not drawn) [Compound 328, N-(2-oxo-1-{[(phenylmethyl)oxy]methyl}-2-{[4-(phenyloxy)phenyl]amino}ethyl)-1,3-benzodioxol-5-ylacetamide], for which the IC50 is more than 1000 nM.

As to `CC(=O)Nc1nc(C)c(S(=O)(=O)NC(COCc2ccccc2)C(=O)Nc2ccc(Oc3ccccc3)cc2)s1` (stereo not drawn) [Compound 305, N-(2-oxo-1-{[(phenylmethyl)oxy]methyl}-2-{[4-(phenyloxy)phenyl]amino}ethyl)-2-acetylamino-4-methylthiazol-5-ylsulfonamide], the IC50 was not above 300 nM.

In the case of `CCCCCC(=O)NC(COCc1ccccc1)C(=O)Nc1ccc(Oc2ccccc2)cc1` (stereo not drawn) [Compound 295, N-(2-oxo-1-{[(phenylmethyl)oxy]methyl}-2-{[4-(phenyloxy)phenyl]amino}ethyl)hexanamide], the IC50 is more than 1000 nM.

Consider `O=C(Nc1ccc(Oc2ccc(F)cc2)cc1)[C@@H]1C[C@@H](Cc2ccc(F)cc2)C(=O)N1C(=O)Cn1cncn1` [Compound 71, (2S,4R)-1-(2-(1H-1,2,4-triazol-1-yl)acetyl)-4-(4-fluorobenzyl)-N-(4-(4-fluorophenoxy)phenyl)-5-oxopyrrolidine-2-carboxamide], for which the IC50 was not above 300 nM.

For `O=C(COc1ccccc1O)NC(COCc1ccccc1)C(=O)Nc1ccc(Oc2ccccc2)cc1` (stereo not drawn) [Compound 26, 3-(benzyloxy)-2-(2-(2-hydroxyphenoxy)acetamido)-N-(4-phenoxyphenyl)propanamide], the IC50 was more than 1000 nM.
